{"source": "paper PMC7713230", "about": "“Upconversion NIR-II fluorophores for mitochondria-targeted cancer imaging and photothermal therapy” (Nature Communications, 2020)", "key": {"143B cells [1]": {"test_system": "143B cells", "experiment": "Mitochondrial membrane potential by JC-1 assay", "assay_type": "cell-based, human", "settings": "CCCP 40 μM 6 h, positive control, control = 100%", "procedure": "(§1) 20 mm confocal dishes, and cultured for 12 h at a density of 1×10^5 cells/well. Then, 200 µL of H4-PEG-PT (64 µM) was introduced into the confocal dishes. After 7 h incubation, 143B and HepG2 cells were washed twice with PBS, stained with Hoechst staining kit in PBS for 20 min. The tumor cell samples were immediately examined by an inverted Zeiss Axiovert 200 fluorescence microscopy at a 20× objective, using a high-pressure mercury lamp as an excitation source.\n(§2) 143B cells (6×103) were incubated in 96 wells plate at 37 °C for 12 h. Then, cells were treated with 64 μM H4-PEG-PT or 40 μM CCCP for 6 h and irradiated by an 808 nm laser for 3 min each well. After irradiation, ATP level was immediately determined by an ATP determination kit (cat. no. A22066) from Thermo Fisher Scientific with 1% Triton X 100 water solution for cell permeabilization. After 10 min incubation, the luminescence intensity was then detected using a microplate reader (TECAN, Infinite M200 […]\n(§3) Detection of mitochondrial membrane potential by JC-1 assay\n(§4) 143B cells (6×103) were incubated in 96 wells plate for 12 h. Then, cells were treated with H4-PEG-PT (64 μM), or CCCP (40 μM) for 6 h and irradiated by an 808 nm laser for 3 min. […] Fluorescence intensity was then detected using a microplate reader (TECAN, Infinite M200 Pro) with excitation at 485 nm (green) or 535 nm (red) and emissions at 535 nm (green) or 595 nm (red). […]"}, "143B cells [2]": {"test_system": "143B cells", "experiment": "Detection of ATP level", "assay_type": "cell-based, human", "settings": "CCCP 40 μM 6 h, positive control, control = 100%", "procedure": "as §1, §2, §3, §4"}, "[3]": {"test_system": "mitochondria of 143B cells", "experiment": "Mitochondrial colocalization by confocal laser scanning microscopy", "assay_type": "cell-based, human", "settings": "concentrations lower than 10 nM, same experimental conditions", "procedure": "[…] Scale bar: 10 μm. Results in (a–f) are representative of three independent experiments.\n143B (50,000 cells) were seeded in round discs and incubated in 1 mL of DMEM medium (pH = 7.4) containing 10% FBS for 24 h. After replacing the medium with 1 mL of fresh medium, 3k-PEG, H4-PEG, and H4-PEG-PT were added, respectively, and the cells were allowed to incubate for 6 h. After removing the medium and subsequently washing with PBS buffer (pH = 7.4) thrice, mitotracker green was added to stain the mitochondria for 30 min. The cells were viewed under a FV1200 CLSM (Olympus) and Leica SPE."}, "[4]": {"test_system": "osteosarcoma cell lines (e.g., 143B cells)", "settings": "cited from earlier work", "description": "Osteosarcoma is the third most common malignant tumor and accounts for more than 60% of all malignant bone tumors in children and adolescents. Surgical excision of all primary and metastatic tumors remains the essential strategy behind osteosarcoma treatment. However, current diagnostic tools allow detection of only 8–15% of bone or lung metastatic patients[52],[53]. Thus, it is urgent to develop new theranostic strategies for early diagnosis, therapy, and monitoring responses to osteosarcoma therapies[54],[55]. The oligopeptide PPSHTPT (PT) was first designed to mimic the properties of th ..."}}}
{"compound": "N#CC(C#N)=NNc1cccc(Cl)c1", "note": "[CCCP, carbonyl cyanide m-chlorophenylhydrazone]", "values": [{"measurement": "ratio of J-aggregates to monomers", "setting": "143B cells [1]", "result": 63, "unit": "%"}, {"measurement": "cellular ATP level", "setting": "143B cells [2]", "result": "~ 78%"}]}
{"compound": "CN1/C(=C/C=C/c2n(Cc3ccc(CCl)cc3)c3cc(Cl)c(Cl)cc3[n+]2Cc2ccc(CCl)cc2)Oc2ccccc21", "note": "[Mitotracker Green]", "values": [{"measurement": "fluorescent intensity in mitochondrial imaging", "setting": "[3]", "result": "too weak to be detected"}]}
{"compound": "PPSHTPT [osteosarcoma-targeting oligopeptide PPSHTPT, mimics osteocalcin]", "values": [{"measurement": "affinity and specificity for osteosarcoma cell lines", "setting": "[4]", "result": "high affinity and specificity"}]}
